For four molecules, IC50 results are on record in patent publication US20170334899A1, “AMINO-SUBSTITUTED ISOTHIAZOLES” (Bayer Pharma Aktiengesellschaft, priority 2014, published 2017).

The test deals with T1, catalytic domain of human Bub1 (amino acids 704-1085) (Homo sapiens, UniProt O43683).
T1 construct: catalytic domain of human Bub1 (amino acids 704-1085); His6 (N); made in house; host or cells: insect cells (Hi5)
T1 sequence (O43683 704-1085): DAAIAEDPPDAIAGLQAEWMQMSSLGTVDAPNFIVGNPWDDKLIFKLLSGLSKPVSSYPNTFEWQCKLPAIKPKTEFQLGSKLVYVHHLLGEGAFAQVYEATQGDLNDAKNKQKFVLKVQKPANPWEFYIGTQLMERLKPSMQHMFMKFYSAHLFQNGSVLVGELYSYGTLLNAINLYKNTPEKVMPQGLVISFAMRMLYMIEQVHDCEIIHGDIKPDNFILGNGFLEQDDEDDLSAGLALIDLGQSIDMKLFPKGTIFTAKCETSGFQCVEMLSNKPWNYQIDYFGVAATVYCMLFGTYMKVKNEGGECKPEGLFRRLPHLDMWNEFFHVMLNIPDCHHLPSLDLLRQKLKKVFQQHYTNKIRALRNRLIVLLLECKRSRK
Description: Bub1 kinase assay (TR-FRET). It is filed as biochemical. The following applies: 10 μM ATP, avg, read-out: Bub1 avg (IC50 [mol/l]). The method, boiled down: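 Readout is the 665/620 nm TR-FRET ratio from anti-phosphoserine antibody, Eu-labelled anti-mouse IgG and streptavidin-XL665, scaled between no-enzyme and uninhibited controls. Reaction: 1 μM biotinylated peptide, 10 μM ATP, 60 min, 22 °C, after 15 min compound preincubation with His6-Bub1 (704-1085, insect-expressed, ~200 ng/ml).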
In general terms: In TR-FRET formats the signal depends on donor and acceptor labels being close together.
`Cc1nsc(Nc2cnc(C(F)(F)F)cn2)c1C(=O)Nc1ccc(F)c(OCCCNCCC(F)(F)F)c1` [Example 307, N-(4-fluoro-3-{3-[(3,3,3-trifluoropropyl)amino]propoxy}phenyl)-3-methyl-5-{[5-(trifluoromethyl)pyrazin-2-yl]amino}-1,2-thiazole-4-carboxamide]: the IC50 is at least 20 µM.
Then `Cc1nsc(Nc2cnc(C(F)(F)F)cn2)c1C(=O)Nc1ccc(OCCCNCC(F)(F)F)nc1` [Example 292, 3-methyl-N-(6-{3-[(2,2,2-trifluoroethyl)amino]propoxy}pyridin-3-yl)-5-{[5-(trifluoromethyl)pyrazin-2-yl]amino}-1,2-thiazole-4-carboxamide], with over 20 µM.
Then `Cc1nsc(Nc2cncc(C(F)(F)F)n2)c1C(=O)Nc1ccc(C(=O)NC2CN(CC(F)(F)F)C2)cc1` [Example 280, 3-methyl-N-(4-{[1-(2,2,2-trifluoroethyl)azetidin-3-yl]carbamoyl}phenyl)-5-{[6-(trifluoromethyl)pyrazin-2-yl]amino}-1,2-thiazole-4-carboxamide], with over 20 µM.
The same measure for `Cc1nsc(Nc2cc(C#N)ccn2)c1C(=O)Nc1cccc(C(=O)NC(C)C)c1` [Example 254, 5-[(4-cyanopyridin-2-yl)amino]-N-[3-(isopropylcarbamoyl)phenyl]-3-methyl-1,2-thiazole-4-carboxamide]: 3.2 µM.
